# Measured values published in the NIST ThermoML archive (doi:10.1021/acs.jced.8b01044).
# ± gives the expanded uncertainty stated by the source.
# Legend:
# [1] = Crystal; DSC
# [2] = Molar enthalpy of transition or fusion; conditions: Crystal; DSC
Triple point temperature [1] [K],Molar enthalpy of transition or fusion [2] [kcal/mol],Compound
336.13 ± 0.93,12.1 ± 0.765,CCCCCCCCCCCCCCCC(=O)O [hexadecanoic acid]
317.71 ± 0.93,8.54 ± 0.598,CCCCCCCCCCCC(=O)O [dodecanoic acid]
344.08 ± 0.93,14.5 ± 0.86,CCCCCCCCCCCCCCCCCC(=O)O [octadecanoic acid]
